Test results reported in publication PMC9781916, “Antipsychotic- and Anxiolytic-like Properties of a Multimodal Compound JJGW08 in Rodents” (International Journal of Molecular Sciences, 2022).

Columns and labels:
human D2 receptor = target: T1, human D2 receptor (Homo sapiens, UniProt P14416); assay: Functional assay (aequorin, calcium mobilization) in CHO-K1 cells, D2 receptor; assay type: cell-based; set-up: Emax: dose or concentration left out as unconfirmed; details: CHO-K1, read-out: Antagonist Mode Emax%
T1 construct: host or cells: CHO-K1
Experimental: (§3) Tested and reference compounds were dissolved in dimethyl sulfoxide (DMSO) at a concentration of 10 mM. Serial dilutions were prepared in a 96-well microplate in assay buffer, and 8 to 10 concentrations were tested. […] The assay was executed according to the previously described protocol [45]. After thawing, cells were transferred to assay buffer (DMEM/HAM’s F12 with 0.1% protease-free BSA) and centrifuged. The cell pellet was resuspended in assay buffer, and coelenterazine h was added at final concentrations of 5 µM. The cell suspension was incubated at 16 °C (or 21 °C), protected from light with constant agitation for 16 h (or 4 h), and then diluted with assay buffer to the concentration of 100,000 cells/mL (or 250,000 cells/mL). After 1 h of incubation, 50 µL of the cell’s suspension was dispensed using automatic injectors built into the radiometric and luminescence plate counter MicroBeta2 LumiJET (PerkinElmer, Waltham, NA, USA) into white opaque 96-well microplates preloaded with test compounds. Immediate light emission generated following calcium mobilization was recorded for 30 s. In antagonist mode, after 25–30 min of incubation, the reference agonist was added to the above assay mix, and light emission was re-recorded. […] IC50 and EC50 values were calculated.

[1] = target: T2, human serotonin 5-HT1A receptor (Homo sapiens, UniProt P08908); assay: Functional assay (aequorin, calcium mobilization) in CHO-K1 cells, 5-HT1A receptor; assay type: cell-based; details: CHO-K1, agonist mode
T2 construct: host or cells: CHO-K1
T2 sequence (P08908 1-422): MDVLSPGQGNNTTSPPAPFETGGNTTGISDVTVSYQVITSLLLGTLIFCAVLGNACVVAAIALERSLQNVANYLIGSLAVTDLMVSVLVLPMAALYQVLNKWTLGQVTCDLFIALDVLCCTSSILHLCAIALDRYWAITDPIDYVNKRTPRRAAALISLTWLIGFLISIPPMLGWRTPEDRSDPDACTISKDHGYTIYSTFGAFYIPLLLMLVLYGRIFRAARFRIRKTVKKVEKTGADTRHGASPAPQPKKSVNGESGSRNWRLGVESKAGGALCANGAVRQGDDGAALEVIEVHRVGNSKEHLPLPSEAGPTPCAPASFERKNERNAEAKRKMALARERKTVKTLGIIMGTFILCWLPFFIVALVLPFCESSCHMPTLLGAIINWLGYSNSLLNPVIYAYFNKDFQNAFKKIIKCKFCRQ
Experimental: as §3

mice [2] = assay: MK-801-induced hyperlocomotion test in mice; assay type: in vivo; details: MK-801 0.2 mg/kg ip
Experimental: (§1) Locomotor activity was recorded in actometers separately for each mouse. After 30 min of adaptation, the number of crossings of photo beams was measured during 60 min. […] MK-801 (0.2 mg/kg, ip) was administered 15 min before the experiment, while amphetamine (2.5 mg/kg) was administered subcutaneously (sc) 30 min before the experiment. […] Values are expressed as means ± SD, n = 8–10 mice per group. Statistical analysis: one-way ANOVA (Newman–Keuls post hoc), * p < 0.05, ** p < 0.01, *** p < 0.001.
(§2) The test was performed according to the method described by Carlsson et al.. The mobility of the animals was measured in actometers, i.e., in plastic Opto M3 cages (22 × 12 × 13 cm) connected to a computer with MultiDevice Software v.1.30 (Columbus Instruments, Columbus, OH, USA). The experimental cages were equipped with infrared sources on one side and sensors receiving the emitted rays on the other side of the cage. The crossing of each beam of infrared rays was classified as motor activity. The animals were placed individually in experimental cages immediately after administration of the tested compound, 30 min before the start of the test, to adapt to the new conditions and exclude the occurrence of hyperactivity caused by the change of the environment. Spontaneous locomotor activity was measured every 5 min for 60 min. Mice received two injections: of the tested compound or reference substance (30 min before the test, ip) and of amphetamine (2.5 mg/kg, 30 min before the test, sc) or MK-801 (0.2 mg/kg, 15 min before the test, ip). Control groups received an injection of saline and amphetamine or MK-801, or two injections of saline, respectively. Olanzapine was used as a reference compound.

mice [3] = assay: Amphetamine-induced hyperlocomotion test in mice; assay type: in vivo; details: amphetamine 2.5 mg/kg sc
Experimental: as §1, §2

[4] = set-up: method as in earlier work; details: ref 43 (Bubeníková et al.); cited from earlier work
mice [5] = assay: Marble burying test in mice; assay type: in vivo
Experimental: Figure 3 The effect of JJGW08 and aripiprazole on the number of buried marbles by mice. Mice were placed individually in cages with a 5 cm bedding layer, where 20 glass balls were placed. The number of buried marbles after 30 min of the test was counted. JJGW08 was administered intraperitoneally (ip) 30 min before the test. The control group received 0.9% NaCl solution (ip) or 1% Tween (ip) for aripiprazole. Values are expressed as means ± SD in the case of one-way ANOVA (aripiprazole) or median with interquartile range in the case of Kruskal–Wallis test (JJGW08), n = 8–10 mice per group. Statistical analysis: one-way ANOVA (Newman–Keuls post hoc), and Kruskal–Wallis test (Dunn post hoc), * p < 0.05, ** p < 0.01, *** p < 0.001.
The test was conducted according to the method described by Broekkamp et al. with minor modifications. Mice were placed individually in plastic cages, identical to their home cages, that contained a layer of bedding and 20 glass balls (1.6 cm in diameter) arranged in a pattern 4 × 5. After 30 min of the experiment, the mice were removed from the cages, and the number of balls buried to at least 2/3 of their size was counted.

rats = assay: Open field test after MK-801 administration in rats (MK-801-induced hyperlocomotion); assay type: in vivo; details: MK-801 0.3 mg/kg ip
Experimental: Figure 4 The effect of JJGW08 and clozapine on MK-801-induced hyperlocomotion in rats. After the habituation period (30 min, 24 h before the test), locomotor activity was measured individually for each animal in the special apparatus. The walked distance (cm) was monitored at 10-min intervals for 30 min, using a computerized system that tracked the animals’ movement and behavior. JJGW08 and clozapine were administered intraperitoneally (ip) 30 or 60 min before the test, respectively, while MK-801 (0.3 mg/kg) was administered ip 15 min before the start of the experiment. The control group received 0.9% NaCl solution (ip) (or 1% Tween (ip) for clozapine) and MK-801 (0.3 mg/kg, ip). Values are expressed as mean ± SD, n = 7–8 rats per group. Statistical analysis: one-way ANOVA (Newman–Keuls post hoc) * p < 0.05, ** p < 0.01, *** p < 0.001.
The experiment was evaluated according to the method described earlier. It was performed in a soundproof chamber with a 30-min habituation period 24 h before the procedure. The open field apparatus consisted of four black, octagonal, stainless steel arenas (diameter: 80 cm) with 30 cm high walls. Each arena was divided into a peripheral and central sector. The peripheral sector was defined as the region within 20 cm from the walls. The approximate light intensity was 15 lx in the central point of the arena and 4 lx close to its walls.
Individual rats were placed in the central part of the open field and allowed to explore the whole arena for 30 min under dim light (approximately 10 lx) and continuous white noise (65 dB). Forward locomotion (cm/30 min) was registered in 10-min intervals for 30 min and analyzed with the aid of a computerized video tracking system (Videomot, TSE, Bad Homburg, Germany). The arenas were cleaned between tests with 20% (v/v) alcohol and allowed to dry.
The tested compound was administered ip 30 min before the experiment at the dose range of 0.3–30.0 mg/kg, and MK-801 (0.3 mg/kg,) was administered ip 15 min before the procedure. […]

[6] = target: T3, human serotonin 5-HT2A receptor (Homo sapiens, UniProt P28223); assay type: cell-based; details: 5-HT2A
T3 construct: host or cells: CHO-K1
T3 sequence (P28223 whole entry): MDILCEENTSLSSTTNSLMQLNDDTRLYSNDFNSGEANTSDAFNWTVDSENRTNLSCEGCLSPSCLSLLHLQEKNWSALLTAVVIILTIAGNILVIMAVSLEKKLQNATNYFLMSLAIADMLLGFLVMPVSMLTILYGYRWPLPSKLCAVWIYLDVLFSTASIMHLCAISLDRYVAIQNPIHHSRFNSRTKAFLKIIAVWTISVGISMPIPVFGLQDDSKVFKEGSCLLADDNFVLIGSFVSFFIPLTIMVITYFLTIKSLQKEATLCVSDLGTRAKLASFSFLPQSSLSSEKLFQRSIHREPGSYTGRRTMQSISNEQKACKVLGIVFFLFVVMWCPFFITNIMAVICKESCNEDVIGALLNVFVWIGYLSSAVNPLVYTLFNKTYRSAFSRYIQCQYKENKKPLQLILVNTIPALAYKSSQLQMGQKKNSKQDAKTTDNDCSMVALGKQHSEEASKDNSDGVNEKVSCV
Experimental: as §3

T1 sequence (P14416 whole entry): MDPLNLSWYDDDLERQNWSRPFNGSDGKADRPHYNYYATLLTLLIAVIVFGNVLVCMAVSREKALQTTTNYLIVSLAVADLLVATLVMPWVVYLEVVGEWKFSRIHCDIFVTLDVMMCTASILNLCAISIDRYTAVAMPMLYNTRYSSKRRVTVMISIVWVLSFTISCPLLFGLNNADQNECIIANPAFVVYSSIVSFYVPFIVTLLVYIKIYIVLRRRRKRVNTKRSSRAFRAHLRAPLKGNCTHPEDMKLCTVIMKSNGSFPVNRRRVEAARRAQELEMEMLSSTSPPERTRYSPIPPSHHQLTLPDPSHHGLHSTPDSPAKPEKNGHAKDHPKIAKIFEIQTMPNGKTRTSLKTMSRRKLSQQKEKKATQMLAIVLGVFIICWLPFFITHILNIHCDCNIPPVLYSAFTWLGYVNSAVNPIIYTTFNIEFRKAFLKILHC

CN1CCc2cccc3c2[C@H]1Cc1ccc(O)c(O)c1-3 [Apomorphine, reference compound]
Emax (human D2 receptor): 0%

COc1ccccc1N1CCN(CCCCN2C(=O)c3ccccc3C2=O)CC1 [NAN-190, reference compound]
Emax [1]: 6%

Cc1cc2c(s1)Nc1ccccc1N=C2N1CCN(C)CC1 [Olanzapine]
reduction of MK-801-induced hyperlocomotion (mice [2]; 0.03 mg/kg ip): 63%
reduction of MK-801-induced hyperlocomotion (mice [2]; 0.3 mg/kg ip): 82%
reduction of amphetamine-induced hyperlocomotion (mice [3]; 0.03 mg/kg ip): 54%
reduction of amphetamine-induced hyperlocomotion (mice [3]; 0.3 mg/kg ip): 75%
effect on MK-801-induced deficits in the prepulse inhibition test (in words) [4]: restored

O=C1CCc2ccc(OCCCCN3CCN(c4cccc(Cl)c4Cl)CC3)cc2N1 [aripiprazole]
reduction of the number of buried marbles (mice [5]; 1.25 mg/kg ip): 61%
reduction of the number of buried marbles (mice [5]; 2.5 mg/kg ip): 69%
reduction of the number of buried marbles (mice [5]; 5.0 mg/kg ip): 93%

CN1CCN(C2=Nc3cc(Cl)ccc3Nc3ccccc32)CC1 [clozapine]
reduction of MK-801-induced hyperlocomotion in the open field (rats; 10 mg/kg ip): 53%
reduction of MK-801-induced hyperlocomotion in the open field (rats; 30 mg/kg ip): 98%
effect on MK-801-induced deficits in the prepulse inhibition test (in words) [4]: restored

Cc1nc2n(c(=O)c1CCN1CCC(c3noc4cc(F)ccc34)CC1)CCCC2 [risperidone]
effect on MK-801-induced deficits in the prepulse inhibition test (in words) [4]: ineffective

CC(N)Cc1c[nH]c2ccc(O)cc12 (stereo not drawn) [α-methylserotonin, reference compound]
Agonist Mode Emax% ([6]; agonist mode): 100%
Agonist Mode pEC50 ± Range ([6]; agonist mode): 8.5 ± 0.3
Antagonist Mode Emax% ([6]; antagonist mode, 30 nM α-methylserotonin as reference agonist): 2%
